The record followed here is patent US20260015350A1, “AZAQUINAZOLINE PAN-KRAS INHIBITORS” (Mirati Therapeutics, Inc., priority 2022, published 2026).

The target of assay [1] is T1, KRas^G12D (Homo sapiens, UniProt P01116, G12D).
T1 construct: Biotinylated KRas (corresponding to amino acids 1-169, produced at Accelegan Inc.); biotin (biotinylated); purchased Accelegan Inc
The assay is described as follows: KRas binding assay (TR-FRET tracer displacement), KRas G12D. On the technique in general: In TR-FRET formats the signal depends on donor and acceptor labels being close together.

Assay [2] deals with KRas-mediated phosphorylation of ERK in H727 cells. The assay is described as follows: Inhibition of KRas-mediated phosphorylation of ERK (Cisbio HTRF pERK), H727 cells. Format: cell-based. Particulars: Homo sapiens; for IC50: NCI-H727, H727 cells, HTRF pERK; for inhibition at 0.1 µM: NCI-H727, 3 h, single point, 100 nM compound, 3 hrs, H727 cells. The essentials: (§1)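 6,000 cells/well; cpd 10 uM top, 3-fold x10, 0.8% DMSO final; 3 hr incubation; Min ctrl Trametinib 0.2 uM; lysis 40 min 4° C shaking; d2 + Cryptate Ab mix, 2 hr RT; HTRF read.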

For assay [3], the system named is KRas-mediated phosphorylation of ERK in HCT116 cells. The assay is described as follows: Inhibition of KRas-mediated phosphorylation of ERK (Cisbio HTRF pERK), HCT116 cells. In kind it is cell-based. The note with it: Homo sapiens, HCT-116, 3 h, single point, 100 nM compound, 3 hrs. How it is done: (§2) Inhibition of KRas Phosphorylation of ERK (HTRF) by Exemplary Compounds of Formula (I) Cisbio HTRF Advanced PERK Assay Catalog #64[…] […] Add 10 mL of media to stop trypsinizing. Pipette the cells into a conical bottom 50 mL centrifuge tube and centrifuge 5 min×1000 rpm. […] Re-suspend the cell pellet in media, take a cell count, and then adjust the cell density using fresh media. […] Seed 6,000 cells into cell culture plate with 50 μL media. […] Use Tecan to complete the compound addition. Compounds start from 10 uM top, 3-fold dilution, and 10 doses. The final DMSO concentration is 0.8%. Dispensed 0.2 uM Trametinib as Min control. […] Incubate cell plate for 3 hrs in the incubator. […] Dilute 1 volume of 4× lysis buffer with 3 volumes of deionized water. […] Keep lysis buffer on the ice. […] At the end of the compound treatment, flick-off the media. […] Add 35 μL of lysis buffer per well using a Multidrop Combi. Then place on a plate agitator shaking at 300 rpm at 4° C. for 40 mins. […] Make up the HTRF antibody buffer. For each assay plate, mix 50 μL of d2-conjugate antibody with 950 μL of detection buffer. Similarly, mix 50 μL of Cryptate antibody with 950 μL of detection buffer. Then mix the two diluted antibodies together. […] Dispense 3.4 μL the antibody buffer to wells of an empty assay plate. Seal the plate and centrifuge plate 30 sec×1000 rpm. […] At the end of the 4° C. lysis, centrifuge the lysate plates 3 mins×1500 rpm. […] Use the Bravo to transfer 13.6 μL of lysate from cell culture plate to assay plate. Then incubate assay plate for 2 hrs at room temperature. 8. At the end of incubation, read plate on the Envision after centrifuging plate 30 sec×1000 rpm.

Assay [4] addresses T2, KRas^G12V (Homo sapiens, UniProt P01116, G12V).
T2 construct: Biotinylated KRas (corresponding to amino acids 1-169, produced at Accelegan Inc.); biotin (biotinylated); purchased Accelegan Inc
The assay is described as follows: KRas binding assay (TR-FRET tracer displacement), KRas G12V.

Assay [5] deals with T3, KRas^G12R (Homo sapiens, UniProt P01116, G12R).
T3 construct: Biotinylated KRas (corresponding to amino acids 1-169, produced at Accelegan Inc.); biotin (biotinylated); purchased Accelegan Inc
The assay is described as follows: KRas binding assay (TR-FRET tracer displacement), KRas G12R.

Assay [6] concerns KRas-mediated phosphorylation of ERK in H460 cells. The assay is described as follows: Inhibition of KRas-mediated phosphorylation of ERK (Cisbio HTRF pERK), H460 cells. Particulars: Homo sapiens; for inhibition at 0.1 µM: NCI-H460, 3 h, single point, 100 nM compound, 3 hrs. Format: cell-based. Here is the method:
as §2

The subject of assay [7] is KRas-mediated phosphorylation of ERK in AsPC-1 cells. The assay is described as follows: Inhibition of KRas-mediated phosphorylation of ERK (Cisbio HTRF pERK), AsPC-1 cells. In kind it is cell-based. Particulars: Homo sapiens; for IC50: ASPC1, AsPC-1 cells, HTRF pERK; for inhibition at 0.1 µM: ASPC1, 3 h, single point, 100 nM compound, 3 hrs, AsPC-1 cells. A digest of the protocol: as §1

The test system of assay [8] is KRas-mediated phosphorylation of ERK in A549 cells. The assay is described as follows: Inhibition of KRas-mediated phosphorylation of ERK (Cisbio HTRF pERK), A549 cells. The note with it: Homo sapiens, HTRF pERK. In kind it is cell-based. How it is done: as §2

T3 sequence (P01116 1-169 isoform P01116-2 G12R): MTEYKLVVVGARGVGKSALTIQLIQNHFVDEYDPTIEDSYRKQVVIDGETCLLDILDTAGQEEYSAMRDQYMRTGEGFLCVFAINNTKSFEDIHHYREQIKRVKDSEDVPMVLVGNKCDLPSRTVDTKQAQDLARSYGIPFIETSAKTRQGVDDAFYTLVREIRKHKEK
T1 sequence (P01116 1-169 isoform P01116-2 G12D): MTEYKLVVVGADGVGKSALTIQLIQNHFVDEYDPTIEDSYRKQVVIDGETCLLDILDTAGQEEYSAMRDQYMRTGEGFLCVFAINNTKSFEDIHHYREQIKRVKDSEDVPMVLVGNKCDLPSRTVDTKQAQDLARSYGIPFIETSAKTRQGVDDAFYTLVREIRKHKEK
T2 sequence (P01116 1-169 isoform P01116-2 G12V): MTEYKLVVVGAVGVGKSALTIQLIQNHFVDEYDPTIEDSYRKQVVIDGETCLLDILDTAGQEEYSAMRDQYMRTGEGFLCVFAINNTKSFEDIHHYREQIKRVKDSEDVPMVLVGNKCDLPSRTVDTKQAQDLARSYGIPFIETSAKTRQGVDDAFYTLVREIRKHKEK

With `CCc1c(F)ccc2cc(O)cc(-c3ncc4c(N5CCC[C@@](C)(O)C5)nc(OCC5(CN)CC5)nc4c3F)c12` [Example 536, (R)-1-(2-((1-(aminomethyl)cyclopropyl)methoxy)-7-(8-ethyl-7-fluoro-3-hydroxynaphthalen-1-yl)-8-fluoropyrido[4,3-d]pyrimidin-4-yl)-3-methylpiperidin-3-ol], the IC50 in assay [1] came to 5 nM; in assay [2] it was 3440 nM; in assay [4] it was 5 nM; in assay [5], 9 nM; in assay [7] it was 4550 nM. Besides, the inhibition at 0.1 µM is 9% in assay [3] and -9% in assay [6].
Regarding `CCc1c(F)ccc2cc(O)cc(-c3ncc4c(NC5CC6(CCCO6)C5)nc(OC[C@@]56CCCN5C[C@H](F)C6)nc4c3F)c12` (stereo partly drawn) [Example 554, 4-(4-(5-oxaspiro[3.4]octan-2-ylamino)-8-fluoro-2-(((2R,7aS)-2-fluorohexahydro-1H-pyrrolizin-7a-yl)methoxy)pyrido[4,3-d]pyrimidin-7-yl)-5-ethyl-6-fluoronaphthalen-2-ol], the IC50 in assay [8] is 742 nM; in assay [1] it was 79 nM; in assay [2], 410 nM; in assay [4], 9 nM; in assay [5] it was 10 nM; in assay [7], 2380 nM.
Turning to `CCc1c(F)ccc2cc(O)cc(-c3ncc4c(N5CCC[S+]([O-])CC5)nc(OC[C@@]56CCCN5C[C@H](F)C6)nc4c3F)c12` (stereo partly drawn) [Example 558, 4-(7-(8-ethyl-7-fluoro-3-hydroxynaphthalen-1-yl)-8-fluoro-2-(((2R,7aS)-2-fluorohexahydro-1H-pyrrolizin-7a-yl)methoxy)pyrido[4,3-d]pyrimidin-4-yl)-1,4-thiazepane 1-oxide], the IC50 was 822 nM in assay [8]; below 2 nM in assay [1]; 603 nM in assay [2]; below 2 nM in assay [4]; below 2 nM in assay [5]; 312 nM in assay [7].
As for `CCc1c(F)ccc2cc(O)cc(-c3ncc4c(NC[C@@H]5C[C@H](CO)NC5=O)nc(OC[C@@]56CCCN5C[C@H](F)C6)nc4c3F)c12` [Example 576, (3S,5R)-3-(((7-(8-ethyl-7-fluoro-3-hydroxynaphthalen-1-yl)-8-fluoro-2-(((2R,7aS)-2-fluorotetrahydro-1H-pyrrolizin-7a(5H)-yl)methoxy)pyrido[4,3-d]pyrimidin-4-yl)amino)methyl)-5-(hydroxymethyl)pyrrolidin-2-one], the IC50 in assay [1] is 45 nM; in assay [2], above 10000 nM; in assay [4], 10 nM; in assay [5], 37 nM. The inhibition at 0.1 µM in assay [2] was -2%; in assay [3] it was -15%; in assay [6] it was -3%; in assay [7], 1%.
With `CCc1c(F)ccc2cc(O)cc(-c3ncc4c(N5CC6C(=O)NC(=O)C6C5C)nc(OC[C@@]56CCCN5C[C@H](F)C6)nc4c3F)c12` (stereo partly drawn) [Example 590, 5-(7-(8-ethyl-7-fluoro-3-hydroxynaphthalen-1-yl)-8-fluoro-2-(((2R,7aS)-2-fluorohexahydro-1H-pyrrolizin-7a-yl)methoxy)pyrido[4,3-d]pyrimidin-4-yl)-4-methyltetrahydropyrrolo[3,4-c]pyrrole-1,3(2H,3aH)-dione], the IC50 is 494 nM in assay [8]; 2 nM in assay [1]; 833 nM in assay [2]; 3 nM in assay [4]; 2 nM in assay [5]; 505 nM in assay [7].
Take `CCc1c(F)ccc2cc(O)cc(-c3ncc4c(N5C[C@H]6C[C@@H](C5)C(=O)NC6=O)nc(OC[C@@]56CCCN5C[C@H](F)C6)nc4c3F)c12` [Example 591, (1R,5S)-7-(7-(8-ethyl-7-fluoro-3-hydroxynaphthalen-1-yl)-8-fluoro-2-(((2R,7aS)-2-fluorotetrahydro-1H-pyrrolizin-7a(5H)-yl)methoxy)pyrido[4,3-d]pyrimidin-4-yl)-3,7-diazabicyclo[3.3.1]nonane-2,4-dione]: the IC50 in assay [8] is 357 nM; in assay [2], 245 nM; in assay [6] (NCI-H460, HTRF pERK) it was 138 nM; in assay [7] it was 1540 nM.
Consider `CCc1c(F)ccc2cc(O)cc(-c3ncc4c(NC5CCCc6c(C(=O)N(C)C)nn(C)c65)nc(OC[C@@]56CCCN5C[C@H](F)C6)nc4c3F)c12` (stereo partly drawn) [Example 672, 7-((7-(8-ethyl-7-fluoro-3-hydroxynaphthalen-1-yl)-8-fluoro-2-(((2R,7aS)-2-fluorohexahydro-1H-pyrrolizin-7a-yl)methoxy)pyrido[4,3-d]pyrimidin-4-yl)amino)-N,N,1-trimethyl-4,5,6,7-tetrahydro-1H-indazole-3-carboxamide], for which the IC50 in assay [8] is 541 nM; in assay [1], 8 nM; in assay [2] it was 1260 nM; in assay [4] it was 5 nM; in assay [5], 4 nM; in assay [7], 469 nM.
As to `CCc1c(F)ccc2cc(O)cc(-c3ncc4c(N5CCC[C@@](C)(O)C5)nc(OCC5(CN(C)C)CC5C)nc4c3F)c12` (stereo partly drawn) [Example 702, (3R)-1-(2-((1-((dimethylamino)methyl)-2-methylcyclopropyl)methoxy)-7-(8-ethyl-7-fluoro-3-hydroxynaphthalen-1-yl)-8-fluoropyrido[4,3-d]pyrimidin-4-yl)-3-methylpiperidin-3-ol], the inhibition at 0.1 µM in assay [2] was 7%; in assay [3] it was 37%; in assay [6], 61%; in assay [7] it was 56%. The 50% inhibitory concentration (IC50) in assay [2] was determined as 149 nM; in assay [7], 32 nM.
As to `CCc1c(F)ccc2cc(O)cc(-c3ncc4c(N5CC(C)(O)C6CC5C6)nc(OC[C@@]56CCCN5C[C@H](F)C6)nc4c3F)c12` (stereo partly drawn) [Example 893, 2-(7-(8-ethyl-7-fluoro-3-hydroxynaphthalen-1-yl)-8-fluoro-2-(((2R,7aS)-2-fluorotetrahydro-1H-pyrrolizin-7a(5H)-yl)methoxy)pyrido[4,3-d]pyrimidin-4-yl)-4-methyl-2-azabicyclo[3.1.1]heptan-4-ol], the IC50 in assay [1] worked out at 92 nM; in assay [2], 3020 nM; in assay [4], 43 nM; in assay [5], 40 nM; in assay [7] it was 2100 nM.
Regarding `CCc1c(F)ccc2cc(O)cc(-c3ncc4c(N5CC6CCC(CCC(=O)NC)(C6)C5)nc(OC[C@@]56CCCN5C[C@H](F)C6)nc4c3F)c12` (stereo partly drawn) [Example 909, 3-(3-(7-(8-ethyl-7-fluoro-3-hydroxynaphthalen-1-yl)-8-fluoro-2-(((2R,7aS)-2-fluorotetrahydro-1H-pyrrolizin-7a(5H)-yl)methoxy)pyrido[4,3-d]pyrimidin-4-yl)-3-azabicyclo[3.2.1]octan-1-yl)-N-methylpropanamide], the IC50 in assay [1] turned out to be 24 nM; in assay [2] it was 1310 nM; in assay [4], 7 nM; in assay [5], 7 nM; in assay [7], 5160 nM.
As for `CCc1c(F)ccc2cc(O)cc(-c3ncc4c(N5CC6CCC(CCC(N)=O)(C6)C5)nc(OC[C@@]56CCCN5C[C@H](F)C6)nc4c3F)c12` (stereo partly drawn) [Example 910, 3-(3-(7-(8-ethyl-7-fluoro-3-hydroxynaphthalen-1-yl)-8-fluoro-2-(((2R,7aS)-2-fluorotetrahydro-1H-pyrrolizin-7a(5H)-yl)methoxy)pyrido[4,3-d]pyrimidin-4-yl)-3-azabicyclo[3.2.1]octan-1-yl)propanamide], the IC50 in assay [1] worked out at 22 nM; in assay [2], 1670 nM; in assay [4] it was 8 nM; in assay [5] it was 9 nM; in assay [7], 8160 nM.

The IC50 is the concentration that inhibits the measured activity by half. Broadly, the inhibition is the change of the read-out against control, counted positive when it falls.
